Measured values published in paper PMC4478171, “Synthesis, characterization, and preclinical validation of a PET radiopharmaceutical for interrogating Aβ (β-amyloid) plaques in Alzheimer’s disease” (EJNMMI Research, 2015).
Entries after “also recorded” stand apart in the source; their conditions may differ. Read-outs that look alike come from different tables or passages of the source.

Experiments:
[1] = biological target: AD homogenates (Homo sapiens, UniProt P05067); conditions: cited from earlier work
AD homogenates, sequence (P05067 672-711 limits assumed): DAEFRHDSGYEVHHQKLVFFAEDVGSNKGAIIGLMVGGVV

[2] = comparison values, no reference given; cited from earlier work
[3] = normal mice, cited from earlier work
[4] = tested on: Aβ plaques; design: method as in PMID 25003699; conditions: transgenic mice; cited from earlier work
[5] = biological target: cortical Aβ plaques in AD frontal cortex sections (Homo sapiens, UniProt P05067); experiment: Autoradiography on AD frontal cortex sections with IHC correlation; type: binding; conditions: 7A […] with 18F-7B 10 nM
cortical Aβ plaques in AD frontal cortex sections, sequence (P05067 672-711 limits assumed): as above
Procedure: Frozen AD frontal cortex sections (12 μm) were obtained using a TBS Minotome PLUS Cryostat. The tissue sections were thaw-mounted onto Superfrost Plus (Fisherbrand 12-550-15 (Fisherbrand, Leicestershire, UK)) microscope slides, allowed to air dry for 10 to 15 min, and stored at −80°C. For autoradiography, brain sections were brought to room temperature for 5 min and then pre-incubated in assay buffer (30 mM Tris-HCl, pH 7.4 + 0.1% BSA) for 10 min at RT. Sections were incubated with ^18F-7B (300 μL/slide; 10 nM) in the assay buffer for 60 min at room temperature. For determining nonspecific binding, adjacent sections were incubated in the additional presence of 2.5 μM cold ligand 7A. Sections were then washed at RT for 1 min in 30 mM Tris-HCl pH 7.4, 2 min in 70% ethanol/30 mM Tris-HCl, 1 min in 30% ethanol/30 mM Tris-HCl, and 1 min in 30 mM Tris-HCl (washing protocol using literature precedents. Sections were then dried and exposed to phosphor-imaging screen (BAS-MS 2025) for 30 min. Autoradiography images were obtained on a Fuji Bio-Imaging System FLA-7000 (Tokyo, Japan) and analyzed using MultiGauge software (Fuji, Tokyo, Japan). Following exposure to a phosphor-imaging screen, the sections were then blocked for 60 min at room temperature with 3% milk-0.25% Tween 20-PBS buffer. […]

[6] = tested on: Aβ plaques in autopsy-confirmed AD human tissues; design: method as in PMID 25003699; conditions: cited from earlier work

SMILES: CNc1ccc(/C=C/c2ccc(OCCOCCOCCF)cc2)cc1 [Florbetaben]
- BP [1]: 152
- Bmax [1]: 2,431 nM
- Kd [1]: 16 nM

SMILES: CNc1ccc(/C=C/c2ccc(OCCOCCOCCF)nc2)cc1 [Florbetapir, (E)-4-(2-(6-(2-(2-(2-^18F-fluoroethoxy)ethoxy)-ethoxy)pyridin-3-yl)vinyl)-N-methyl benzenamine]
- log P [2]: 2.4
- Brain uptake ([3]; 2 min): 7.33 ± 1.54 %ID/g
- Brain uptake ([3]; 2 h): 1.80 ± 0.07 %ID/g
- brain uptake ratio 2 min/2 h [3]: 4.07

SMILES: CN(C)c1ccc(/C=C/c2nc3ccc(OCCF)cc3s2)cn1 [7A, (E)-5-(2-(6-(2-fluoroethoxy)benzo[d]thiazol-2-yl)vinyl)-N,N-dimethylpyridin-2-amine]
- BBB penetration and plaque labeling by multiphoton imaging [4]: could traverse the BBB to label parenchymal plaques in the brain of transgenic mice
- inhibition of 18F-7B binding in autoradiography [5]: binding was inhibited
- plaque types labeled [6]: labels diffuse plaques in autopsy-confirmed AD human tissues; also recorded: binding to both diffuse and fibrillary plaques
